Test results taken from patent EP4049726A1, “IMIDAZO[1,2-A]PYRAZINES AS INHIBITORS OF HASPIN AND THERAPEUTIC USES THEREOF” (Fundación del Sector Público Estatal Centro Nacional de …, priority 2021, dated 2022).

Target: T1, HASPIN (Homo sapiens, UniProt Q8TF76)
T1 sequence (Q8TF76 1-798): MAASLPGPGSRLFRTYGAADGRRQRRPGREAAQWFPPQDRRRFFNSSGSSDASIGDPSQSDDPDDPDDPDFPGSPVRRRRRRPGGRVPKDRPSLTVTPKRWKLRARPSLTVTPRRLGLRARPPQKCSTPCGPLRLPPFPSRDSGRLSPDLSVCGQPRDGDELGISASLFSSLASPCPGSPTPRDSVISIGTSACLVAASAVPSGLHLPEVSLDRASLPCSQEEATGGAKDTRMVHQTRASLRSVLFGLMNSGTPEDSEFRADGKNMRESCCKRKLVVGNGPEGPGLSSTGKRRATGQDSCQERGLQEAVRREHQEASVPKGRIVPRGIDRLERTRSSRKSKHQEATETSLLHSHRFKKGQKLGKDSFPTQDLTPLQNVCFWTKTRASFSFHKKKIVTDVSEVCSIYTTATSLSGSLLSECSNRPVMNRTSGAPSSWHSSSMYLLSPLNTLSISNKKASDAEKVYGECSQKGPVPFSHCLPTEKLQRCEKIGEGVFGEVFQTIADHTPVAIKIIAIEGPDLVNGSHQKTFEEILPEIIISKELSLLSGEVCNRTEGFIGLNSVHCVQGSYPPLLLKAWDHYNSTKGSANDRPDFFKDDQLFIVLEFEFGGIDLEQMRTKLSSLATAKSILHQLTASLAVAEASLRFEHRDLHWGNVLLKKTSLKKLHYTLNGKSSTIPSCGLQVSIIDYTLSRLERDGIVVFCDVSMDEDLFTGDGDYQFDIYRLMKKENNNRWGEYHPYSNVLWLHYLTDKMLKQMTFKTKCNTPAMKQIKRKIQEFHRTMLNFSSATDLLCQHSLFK
Assay: HASPIN biochemical assay (ADP-Glo, HASPIN autophosphorylation)
Settings: ATP 150 µM, 60 min at 30 °C
Description: HASPIN biochemical Assay: The biochemical assay to measure HASPIN activity relies on the ADP-Glo™ assay kit (Promega) that determines the amount of ADP as direct product of the kinase enzyme activity. Assay conditions were as indicated by the kit manufacturers with the following adaptations for the kinase activity step: Kinase assay buffer and assay volume (15 mM HEPES pH 7.5, 20 mM NaCl, 1 mM EGTA, 0.02% TWEEN 20, 10 mM MgCl2, 0.1 mg/mL BGG)/25 µL assay volume). Incubation time and temperature: 60 min at 30 °C. HASPIN final concentration: 0.9 µg/mL. ATP final concentration: 150 µM. HASPIN autophosphorylation was measured. Assays were performed in 384-well plates. The final outcome of the coupled reactions provided by the kit is the release of […] and has been measured with a multilabel HTS counter Victor V / Envision. Values were normalized against the control activity included (100% HASPIN activity, without compound). Values were plotted against the inhibitor concentration and fit to a sigmoid dose-response curve using Activity base by IDBS software.

Row | Compound | IC50 [nM]
1 | COCCNC(=O)c1cn2cc(-c3ccncc3)nc(NCC3CCNCC3)c2n1 [Compound 5, 8-[(Piperidin-4-ylmethyl)-amino]-6-pyridin-4-yl-imidazo[1,2-a]pyrazine-2-carboxylic acid (2-methoxy-ethyl)-amide] | 229
2 | Cc1c(C(N)=O)nc2c(NCC3(F)CCNCC3)nc(-c3ccnc(Cl)c3)cn12 [Compound 25, 6-(2-Chloro-pyridin-4-yl)-8-[(4-fluoro-piperidin-4-ylmethyl)-amino]-3-methyl-imidazo[1,2-a]pyrazine-2-carboxylic acid amide] | 157
3 | CNC(=O)c1cn2cc(-c3ccncc3F)nc(NCC3CCNCC3)c2n1 [Compound 28, 6-(3-Fluoro-pyridin-4-yl)-8-[(piperidin-4-ylmethyl)-amino]-imidazo[1,2-a]pyrazine-2-carboxylic acid methylamide] | 19.5
4 | CNC(=O)c1nc2c(NCC3CCNCC3)nc(-c3ccnc(Cl)c3)cn2c1C [Compound 11, 6-(2-Chloro-pyridin-4-yl)-3-methyl-8-[(piperidin-4-ylmethyl)-amino]-imidazo[1,2-a]pyrazine-2-carboxylic acid methylamide] | 65
5 | COCCNC(=O)c1nc2c(NCC3(C#N)CCNCC3)nc(-c3ccncc3)cn2c1C [Compound 18, 8-[(4-Cyano-piperidin-4-ylmethyl)-amino]-3-methyl-6-pyridin-4-yl-imidazo[1,2-a]pyrazine-2-carboxylic acid (2-methoxy-ethyl)-amide] | 138
6 | Cc1c(C(N)=O)nc2c(NCC3(F)CCNCC3)nc(-c3ccncc3)cn12 [Compound 16, 8-[(4-Fluoro-piperidin-4-ylmethyl)-amino]-3-methyl-6-pyridin-4-yl-imidazo[1,2-a]pyrazine-2-carboxylic acid amide] | 96
7 | CNC(=O)c1nc2c(NCC3CCNCC3)nc(-c3ccncc3)cn2c1C [Compound 7, 3-Methyl-8-[(piperidin-4-ylmethyl)-amino]-6-pyridin-4-yl-imidazo[1,2-a]pyrazine-2-carboxylic acid methylamide] | 60
8 | NC(=O)c1cn2cc(-c3ccncc3Cl)nc(NCC3CCNCC3)c2n1 [Compound 30, 6-(3-Chloro-pyridin-4-yl)-8-[(piperidin-4-ylmethyl)-amino]-imidazo[1,2-a]pyrazine-2-carboxylic acid amide] | 187
9 | CNC(=O)c1cn2cc(-c3ccncc3Cl)nc(NCC3CCNCC3)c2n1 [Compound 31, 6-(3-Chloro-pyridin-4-yl)-8-[(piperidin-4-ylmethyl)-amino]-imidazo[1,2-a]pyrazine-2-carboxylic acid methylamide] | 189
10 | CNC(=O)c1nc2c(NCC3CCNCC3)nc(-c3ccncc3F)cn2c1C [Compound 35, 6-(3-Fluoro-pyridin-4-yl)-3-methyl-8-[(piperidin-4-ylmethyl)-amino]-imidazo[1,2-a]pyrazine-2-carboxylic acid methylamide] | 94.8
11 | CNC(=O)c1nc2c(NCC3(F)CCNCC3)nc(-c3ccnc(Cl)c3)cn2c1C [Compound 20, 6-(2-Chloro-pyridin-4-yl)-8-[(4-fluoro-piperidin-4-ylmethyl)-amino]-3-methyl-imidazo[1,2-a]pyrazine-2-carboxylic acid methylamide] | 78.8
12 | Cc1c(C(N)=O)nc2c(NCC3CCNCC3)nc(-c3ccnc(Cl)c3)cn12 [Compound 12, 6-(2-Chloro-pyridin-4-yl)-3-methyl-8-[(piperidin-4-ylmethyl)-amino]-imidazo[1,2-a]pyrazine-2-carboxylic acid amide] | 253
13 | NC(=O)c1cn2cc(-c3ccncc3)nc(NCC3(O)CCNCC3)c2n1 [Compound 44, 8-[(4-Hydroxy-piperidin-4-ylmethyl)-amino]-6-pyridin-4-yl-imidazo[1,2-a]pyrazine-2-carboxylic acid amide] | 46.8
14 | Cc1c(C(N)=O)nc2c(NCC3(C#N)CCNCC3)nc(-c3ccncc3)cn12 [Compound 19, 8-[(4-Cyano-piperidin-4-ylmethyl)-amino]-3-methyl-6-pyridin-4-yl-imidazo[1,2-a]pyrazine-2-carboxylic acid amide] | 45.7
15 | Cc1c(C(N)=O)nc2c(NCC3(C#N)CCNCC3)nc(-c3ccnc(Cl)c3)cn12 [Compound 24, 6-(2-Chloro-pyridin-4-yl)-8-[(4-cyano-piperidin-4-ylmethyl)-amino]-3-methyl-imidazo[1,2-a]pyrazine-2-carboxylic acid amide] | 111
16 | NC(=O)c1cn2cc(-c3ccncc3)nc(NCC3CCNCC3)c2n1 [Compound 2, 8-[(Piperidin-4-ylmethyl)-amino]-6-pyridin-4-yl-imidazo[1,2-a]pyrazine-2-carboxylic acid amide] | 30
17 | N#CC1(CNc2nc(-c3ccncc3F)cn3cc(C(N)=O)nc23)CCNCC1 [Compound 29, 8-[(4-Cyano-piperidin-4-ylmethyl)-amino]-6-(3-fluoro-pyridin-4-yl)-imidazo[1,2-a]pyrazine-2-carboxylic acid amide] | 6.59
18 | NC(=O)c1cn2cc(-c3ccncc3)nc(NCC3(F)CCNCC3)c2n1 [Compound 15, 8-[(4-Fluoro-piperidin-4-ylmethyl)-amino]-6-pyridin-4-yl-imidazo[1,2-a]pyrazine-2-carboxylic acid amide] | 25.9
19 | NC(=O)c1cn2cc(-c3ccns3)nc(NCC3(F)CCNCC3)c2n1 [Compound 46, 8-[(4-Fluoro-piperidin-4-ylmethyl)-amino]-6-isothiazol-5-yl-imidazo[1,2-a]pyrazine-2-carboxylic acid amide] | 85.6
20 | NC(=O)c1cn2cc(-c3ccnc(N)c3)nc(NCC3(F)CCNCC3)c2n1 [Compound 41, 6-(2-Amino-pyridin-4-yl)-8-[(4-fluoro-piperidin-4-ylmethyl)-amino]-imidazo[1,2-a]pyrazine-2-carboxylic acid amide] | 34.5
21 | Cc1c(C(N)=O)nc2c(NCC3CCNCC3)nc(-c3ccncc3)cn12 [Compound 9, 3-Methyl-8-[(piperidin-4-ylmethyl)-amino]-6-pyridin-4-yl-imidazo[1,2-a]pyrazine-2-carboxylic acid amide] | 180
22 | CNC(=O)c1nc2c(NCC3(C#N)CCNCC3)nc(-c3ccncc3)cn2c1C [Compound 17, 8-[(4-Cyano-piperidin-4-ylmethyl)-amino]-3-methyl-6-pyridin-4-yl-imidazo[1,2-a]pyrazine-2-carboxylic acid methylamide] | 18.2
23 | CNC(=O)c1nc2c(NCC3(F)CCNCC3)nc(-c3ccncc3)cn2c1C [Compound 14, 8-[(4-Fluoro-piperidin-4-ylmethyl)-amino]-3-methyl-6-pyridin-4-yl-imidazo[1,2-a]pyrazine-2-carboxylic acid methylamide] | 78
24 | NC(=O)c1cn2cc(-c3ccncc3)nc(N[C@H]3CC[C@@H](N)CC3)c2n1 [Compound 39, 8-(cis-4-Amino-cyclohexylamino)-6-pyridin-4-yl-imidazo[1,2-a]pyrazine-2-carboxylic acid amide] | 140
25 | CNC(=O)c1nc2c(NCC3(C#N)CCNCC3)nc(-c3ccnc(Cl)c3)cn2c1C [Compound 21, 6-(2-Chloro-pyridin-4-yl)-8-[(4-cyano-piperidin-4-ylmethyl)-amino]-3-methyl-imidazo[1,2-a]pyrazine-2-carboxylic acid methylamide] | 151
26 | N#CC1(CNc2nc(-c3ccnc(Cl)c3)cn3cc(C(N)=O)nc23)CCNCC1 [Compound 6, 6-(2-Chloro-pyridin-4-yl)-8-[(4-cyano-piperidin-4-ylmethyl)-amino]-imidazo[1,2-a]pyrazine-2-carboxylic acid amide] | 59.6
